Source: patent publication US8795630B2, “Butyrylcholinesterase ligands as diagnostic tools and treatment for diseases of the nervous system” (Treventis Corporation, priority 2008, dated 2014)

Legend:
[1] = target: T1, BuChE (Homo sapiens, UniProt P06276); experiment: Michaelis-Menten constant and maximum reaction velocity measurement (Lineweaver-Burk plot); format: biochemical; settings: room temperature, λ=285 nm, average, N=3
Procedure: In Example 55, Km and relative Vmax values were determined for compounds identified to be hydrolyzed by BuChE. The assay was carried out by mixing 1 uL of BuChE stock solution in 1.4 mL of phosphate buffer. Absorbance of this solution was calibrated to zero and the reaction commenced with the addition of 100 μL of a solution of ligand in 100% acetonitrile. The reactions were carried out at room temperature. The rate of change of absorbance (ΔA/min), reflecting the rate of hydrolysis of the ligand by enzyme was recorded every 3 seconds for a total of 36 seconds using a Milton-Roy uv-visible spectrophotometer set at λ=285 nm.
A Lineweaver-Burk plot was used in order to determine the Km (substrate concentration at which the reaction rate reaches half of its maximum value), and relative Vmax (maximum reaction velocity), values. Average Michealis-Menten constant and maximum reaction velocity values for a selection compounds (N=3) were measured, and the results are set forth in Table 1 below.

[2] = target: human recombinant AChE (Homo sapiens, UniProt P22303); experiment: Acetylcholinesterase in vitro assay (hydrolysis of ligand followed by UV/Vis repetitive scans); format: biochemical; settings: phosphate buffer pH 8.0; change of absorbance in repeated scans
Procedure: In Examples 23-28, the interaction of the ligands with AChE was determined by measuring the rate of hydrolysis of the ligand in a buffered solution containing the enzyme. AChE stock solution consisted of 240 μg of human recombinant AChE dissolved in 1.5 mL of 0.1% aq. Gelatin. All ligands used in the assay were dissolved in a minimal amount of acetonitrile to form a ligand solution. 0.1 M Phosphate buffer PH 8.0 consisted of 1.2 g of NaH2PO4 dissolved in 100 mL of water and adjusted to the appropriate pH. The Assay was carried out by mixing 0.1 μmole of ligand solution with 5 μL of AChE stock solution and bringing the volume in a quartz cuvette of 1 cm path length to 1.5 mL with phosphate buffer. Scans using an UltraSpec 2100 Pro UV/Visible spectrophotometer over a wavelength of 200-900 nm monitored the rate of hydrolysis of the ligand by the enzyme. Change of absorbance in the spectrum indicated hydrolysis of the ligand by the enzyme.

[3] = target: T1, BuChE; experiment: Butyrylcholinesterase in vitro assay (hydrolysis of ligand followed by UV/Vis repetitive scans); format: biochemical; settings: phosphate buffer pH 8.0; change of absorbance in repeated scans
Procedure: In Examples 39-54, interaction of the ligands with BuChE was determined by measuring the rate of the hydrolysis of the ligand in a buffered solution containing the enzyme. All ligands used in the assay were dissolved in a minimal amount of acetonitrile to form a ligand solution. 0.1 M Phosphate buffer PH 8.0 was prepared as to the above specifications. The Assay was carried out by mixing 0.1 μmol of ligand solution with 5 μL of BuChE stock solution and bringing the volume in a quartz cuvette of 1 cm path length to 1.5 mL with phosphate buffer. Scans using an UltraSpec 2100 Pro UV/Visible spectrophotometer over a wavelength of 200-900 nm monitored the rate of hydrolysis of the ligand by the enzyme. Change of absorbance in the spectrum indicated hydrolysis of the ligand by the enzyme. The results of these experiments generally indicate that enzymatic hydrolysis of the compounds does occur in the presence of BuChE.

[4] = SPECT imaging and brain fraction radiation counts after injection of radiolabeled compound; format: in vivo; settings: rat; after injection and several hours of SPECT imaging; sacrificed and perfused
Procedure: Shortly after the synthesis and purification detailed in Example 21, a rat was injected with the radiolabeled compound (6-oxo-1,6-dihydropyridin-2-yl)methyl-4-^123iodobenzoate and SPECT images were taken at regular time points for several hours.
After imaging, the rat was sacrificed and perfused. Radiation counts from HPLC attributable to (1,6-dihydro-6-oxopyridin-2-yl)methyl 4-^123iodobenzoate remaining in the brain fraction are shown in FIG. 4.

human recombinant AChE, sequence (P22303 32-614): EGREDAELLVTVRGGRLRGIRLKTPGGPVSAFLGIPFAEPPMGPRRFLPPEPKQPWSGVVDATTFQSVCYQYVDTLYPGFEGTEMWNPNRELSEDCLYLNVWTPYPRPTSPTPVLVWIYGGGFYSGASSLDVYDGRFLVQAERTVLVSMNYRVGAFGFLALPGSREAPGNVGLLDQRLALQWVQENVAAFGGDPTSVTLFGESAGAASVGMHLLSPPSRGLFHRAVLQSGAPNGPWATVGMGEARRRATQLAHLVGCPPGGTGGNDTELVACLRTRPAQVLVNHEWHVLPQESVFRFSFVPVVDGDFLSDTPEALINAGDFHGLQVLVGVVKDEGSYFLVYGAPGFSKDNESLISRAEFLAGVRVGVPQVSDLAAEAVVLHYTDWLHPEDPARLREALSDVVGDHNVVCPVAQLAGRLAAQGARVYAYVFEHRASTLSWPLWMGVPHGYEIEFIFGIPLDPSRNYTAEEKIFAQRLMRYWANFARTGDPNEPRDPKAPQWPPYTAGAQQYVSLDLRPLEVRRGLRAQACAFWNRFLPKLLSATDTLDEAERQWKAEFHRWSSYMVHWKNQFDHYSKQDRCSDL
T1 sequence (P06276 29-602): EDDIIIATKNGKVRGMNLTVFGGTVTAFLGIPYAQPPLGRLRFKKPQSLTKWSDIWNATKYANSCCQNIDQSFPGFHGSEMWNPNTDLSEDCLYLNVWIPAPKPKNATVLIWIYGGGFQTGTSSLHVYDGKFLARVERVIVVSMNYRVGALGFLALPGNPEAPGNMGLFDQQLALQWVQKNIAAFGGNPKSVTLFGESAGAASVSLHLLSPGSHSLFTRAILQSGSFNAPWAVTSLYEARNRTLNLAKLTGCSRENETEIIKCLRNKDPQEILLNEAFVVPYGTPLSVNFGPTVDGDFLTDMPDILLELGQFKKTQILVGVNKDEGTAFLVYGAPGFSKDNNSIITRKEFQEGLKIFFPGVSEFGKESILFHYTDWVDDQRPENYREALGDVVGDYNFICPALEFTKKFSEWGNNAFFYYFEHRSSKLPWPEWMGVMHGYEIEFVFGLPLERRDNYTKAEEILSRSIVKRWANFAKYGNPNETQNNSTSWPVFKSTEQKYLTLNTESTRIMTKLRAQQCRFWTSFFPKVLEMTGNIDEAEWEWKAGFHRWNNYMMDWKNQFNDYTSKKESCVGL

| SMILES | Km [1] | enzymatic hydrolysis of the compound in the presence of AChE [2] | enzymatic hydrolysis of the compound in the presence of BuChE [3] | Vmax (relative maximum reaction velocity) [1] | brain penetration (radiation counts in brain fraction, FIG. 4) [4] |
| --- | --- | --- | --- | --- | --- |
| CCCC(=O)SCC[N+](C)(C)C [butyrylthiocholine, reference compound] | 30.6 ± 7 µM | – | – | – | – |
| CN1CCC(OC(=O)c2cccc(C#N)c2)CC1 [1′-methylpiperidin-4′-yl 3-cyanobenzoate] | – | does not occur | does occur | – | – |
| CN1CC[C@@H](OC(=O)c2ccc(C#N)cc2)C1 [Example 17, R-1′-methylpyrrolidin-3′-yl-4-cyanobenzoate] | 198 ± 18 µM | does not occur | does occur | 30 ± 3 ΔA min^−1 | – |
| CN1CCC(OC(=O)c2ccccc2)CC1 [1′-methylpiperidin-4′-yl benzoate] | – | does not occur | does occur | – | – |
| CN1CCC(OC(=O)c2ccc(I)cc2)CC1 [Example 7, 1′-methylpiperidin-4′-yl 4-iodobenzoate] | 26 ± 2 µM | does not occur | does occur | 8.4 ± 0.4 ΔA min^−1 | – |
| CN1CCC(OC(=O)c2ccccc2)CC1 [Example 10, 1′-methylpiperidin-4′-yl benzoate] | 68 ± 9 µM | – | – | 6.8 ± 0.5 ΔA min^−1 | – |
| CN1CCC(OC(=O)c2ccc(F)cc2)CC1 [Example 8, 1′-methylpiperidin-4′-yl 4-fluorobenzoate] | 753 ± 115 µM | does not occur | does occur | 36 ± 6 ΔA min^−1 | – |
| O=C(OCc1ccc[nH]c1=O)c1ccc(I)cc1 [Example 1, (1,2-dihydro-2-oxopyridin-3-yl)methyl 4-iodobenzoate] | – | does not occur | does occur | – | – |
| N#Cc1ccc(C(=O)OCc2ccc[nH]c2=O)cc1 [Example 3, (1,2-dihydro-2-oxopyridin-3-yl)methyl 4-cyanobenzoate] | – | does not occur | does occur | – | – |
| CN1CCC(OC(=O)c2cccc(I)c2)CC1 [1′-methylpiperidin-4′-yl 3-iodobenzoate] | – | does not occur | does occur | – | – |
| O=C(OCc1cccc(=O)[nH]1)c1ccc(I)cc1 [Example 4, (1,6-dihydro-6-oxopyridin-2-yl)methyl 4-iodobenzoate] | – | does not occur | does occur | 9.7 ± 1.7 ΔA min^−1 | – |
| CN1CCC(OC(=O)c2ccc(C#N)cc2)CC1 [Example 9, 1′-methylpiperidin-4′-yl 4-cyanobenzoate] | 48 ± 18 µM | – | does occur | 12 ± 3 ΔA min^−1 | – |
| O=C(OCc1ccc[nH]c1=O)c1ccc(F)cc1 [Example 2, (1,2-dihydro-2-oxopyridin-3-yl)methyl 4-fluorobenzoate] | – | does not occur | does occur | – | – |
| O=C(OCc1cccc(=O)[nH]1)c1ccc(F)cc1 [Example 5, (1,6-dihydro-6-oxopyridin-2-yl)methyl 4-fluorobenzoate] | – | does not occur | does occur | – | – |
| CN1CCC(OC(=O)c2ccc(C#N)cc2)CC1 [1′-methylpiperidin-4′-yl 4-cyanobenzoate] | – | does not occur | – | – | – |
| N#Cc1ccc(C(=O)OCc2cccc(=O)[nH]2)cc1 [Example 6, (1,6-dihydro-6-oxopyridin-2-yl)methyl 4-cyanobenzoate] | – | does not occur | does occur | – | – |
| O=C(OCc1cccc(=O)[nH]1)c1ccc([123I])cc1 [Example 21, (6-oxo-1,6-dihydropyridin-2-yl)methyl 4-^123iodobenzoate] | – | – | – | – | penetrates into the brain |
| CN1CC[C@H](OC(=O)c2ccc(I)cc2)C1 [Example 14, (5)-1′-methylpyrrolidin-3′-yl 4-iodobenzoate] | 16 ± 4 µM | does not occur | does occur | 6.1 ± 0.5 ΔA min^−1 | – |
| CN1CC[C@@H](OC(=O)c2ccc(I)cc2)C1 [Example 16, R-1′-methylpyrrolidin-3′-yl 4-iodobenzoate] | 144 ± 121 µM | does not occur | does occur | 10 ± 9 ΔA min^−1 | – |
| CN1CC[C@H](OC(=O)c2ccc(C#N)cc2)C1 [Example 15, (S)-1′-methylpyrrolidin-3′-yl-4-cyanobenzoate] | 200 ± 52 µM | does not occur | does occur | 16 ± 4 ΔA min^−1 | – |
